Test results from article PMC9247573 (Frontiers in Microbiology, 2022).
Substitutions are numbered along the chain they refer to.

T1: EcPsuK (Escherichia coli, UniProt Z9FTQ0OEG4)
T1 construct: N-terminal His6-SUMO removed with Ulp1; host E. coli BL21(DE3)
T1 sequence (Z9FTQ0OEG4 1-313): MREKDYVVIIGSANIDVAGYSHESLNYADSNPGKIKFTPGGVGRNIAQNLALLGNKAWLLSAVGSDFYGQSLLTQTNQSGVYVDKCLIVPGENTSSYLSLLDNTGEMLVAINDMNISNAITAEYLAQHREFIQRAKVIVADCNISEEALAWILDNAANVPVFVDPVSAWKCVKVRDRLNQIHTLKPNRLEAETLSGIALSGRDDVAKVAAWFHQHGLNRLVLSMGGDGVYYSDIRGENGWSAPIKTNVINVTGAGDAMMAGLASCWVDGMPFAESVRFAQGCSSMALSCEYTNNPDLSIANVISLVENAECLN

B1: Escherichia coli pseudouridine kinase PsuK (enzyme, E. coli BL21 (DE3), UniProt P30235 1-313, looked up)
chain: T1 sequence (Z9FTQ0OEG4 1-313) with R129G, D203E, R235S, N238S
notes: E. coli pseudouridine kinase PsuK (YeiC), amplified from the E. coli BL21 (DE3) genome, Uniprot ID A0A140N873, aa 1-313 (313 residues, calculated 33.6 kDa); modelled from Arg2 to Asn308 in the apo structure; Cloned by BamHI and XhoI into a modified pET-28a with an Ulp1 cleavage site; also called EcPsuK; YeiC; source: E. coli BL21 (DE3), purified (Ni-NTA, Ulp1 cleavage, second Ni-NTA, Superdex …)

Assays:
[1] = target: T1, EcPsuK; experiment: X-ray crystallography, […] Å; format: binding; conditions: co-crystallised with ADP and Ψ, soaked with 1 mM Ψ and 4 mM ADP, MgCl2, pH 7.0, NaCl-purified protein; ADP not seen; nucleoside site; turnover also measured with ATP
[2] = target: the molecule itself; experiment: SEC; HiLoad 16/60 Superdex 200-pg, 10 mM Tris-HCl pH 8.0, 100 mM NaCl or 100 mM KCl; molecular weight of the purified protein against the calculated monomer

Molecule | X-ray crystallography, 2.30 Å [1] | stoichiometry N [2]
O=c1[nH]cc([C@@H]2O[C@H](CO)[C@@H](O)[C@H]2O)c(=O)[nH]1 [pseudouridine] | we determined the crystal structure of EcPsuK complexed with pseudouridine through co-crystallization | –
B1 | – | 2
